Test results published in PubChem BioAssay AID248 (DTP/NCI, 2004).
Values joined by “and” are separate entries in the source; they are usually repeats but may differ in a detail not shown here. Equal values may be shown once. Toxic doses and inconclusive results are not listed.

Test system: L1210 leukemia ip in BDF1 mice, survival T/C
Assay: NCI In Vivo Anticancer Drug Screen. Data for tumor model L1210 Leukemia (intraperitoneal) in B6D2F1 (BDF1) mice
Details: endpoint: mean survival time, higher = longer survival
Procedure, shortened: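 Ratio derived from survival: compound-dosed mice over vehicle-dosed mice, all bearing a transplantable tumor.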

[1] = dose: 50.0 mg/kg/injection, schedule: Q01DX001 (ip), vehicle: carboxymethylcellulose (CMC)
[2] = dose: 100.0 mg/kg/injection, schedule: Q01DX001 (ip), vehicle: saline with Tween-80
[3] = dose: 200.0 mg/kg/injection, schedule: Q01DX001 (ip), vehicle: saline with Tween-80
[4] = dose: 100.0 mg/kg/injection, schedule: Q04DX003 (ip), vehicle: saline
[5] = dose: 200.0 mg/kg/injection, schedule: Q04DX003 (ip), vehicle: saline
[6] = dose: 400.0 mg/kg/injection, schedule: Q04DX003 (ip), vehicle: saline
[7] = dose: 5.0 mg/kg/injection, schedule: Q01DX001 (ip), vehicle: saline
[8] = dose: 10.0 mg/kg/injection, schedule: Q01DX001 (ip), vehicle: saline
[9] = dose: 20.0 mg/kg/injection, schedule: Q01DX001 (ip), vehicle: saline
[10] = dose: 40.0 mg/kg/injection, schedule: Q01DX001 (ip), vehicle: saline
[11] = dose: 400.0 mg/kg/injection, schedule: Q01DX001 (ip), vehicle: saline with Tween-80
[12] = dose: 100.0 mg/kg/injection, schedule: Q01DX001 (ip), vehicle: carboxymethylcellulose (CMC)
[13] = dose: 200.0 mg/kg/injection, schedule: Q01DX001 (ip), vehicle: carboxymethylcellulose (CMC)
[14] = dose: 100.0 mg/kg/injection, schedule: Q04DX003 (ip), vehicle: Klucel (hydroxypropylcellulose) (HPC)
[15] = dose: 200.0 mg/kg/injection, schedule: Q04DX003 (ip), vehicle: Klucel (hydroxypropylcellulose) (HPC)
[16] = dose: 400.0 mg/kg/injection, schedule: Q04DX003 (ip), vehicle: Klucel (hydroxypropylcellulose) (HPC)

For `COc1cc(N(CCCl)CCCl)ccc1C=Nc1ccccc1C(=O)O`, the T/C (dose: 2.3 mg/kg/injection, schedule: Q01DX015 (ip), vehicle: carboxymethylcellulose (CMC)) was 117 % of control, the T/C (dose: 5.0 mg/kg/injection, schedule: Q01DX001 (ip), vehicle: carboxymethylcellulose (CMC)) was 121 % of control and the T/C (dose: 5.3 mg/kg/injection, schedule: Q01DX015 (ip), vehicle: carboxymethylcellulose (CMC)) was 122 % of control. The T/C (dose: 10.0 mg/kg/injection, schedule: Q01DX015 (ip), vehicle: carboxymethylcellulose (CMC)) was 154 % of control, the T/C (dose: 15.0 mg/kg/injection, schedule: Q01DX015 (ip), vehicle: carboxymethylcellulose (CMC)) was 119 % of control and the T/C (dose: 16.0 mg/kg/injection, schedule: Q01DX015 (ip), vehicle: carboxymethylcellulose (CMC)) was 123 % of control. The T/C (dose: 20.0 mg/kg/injection, schedule: Q01DX001 (ip), vehicle: carboxymethylcellulose (CMC)) was 162 % of control, the T/C (dose: 22.0 mg/kg/injection, schedule: Q01DX001 (ip), vehicle: carboxymethylcellulose (CMC)) was 150 % of control and the T/C (dose: 33.0 mg/kg/injection, schedule: Q01DX001 (ip), vehicle: carboxymethylcellulose (CMC)) was 164 % of control. The T/C [1] was 100 % of control.
In the case of `O=P(OCc1ccccc1)(N(CCO)CCO)N(CCCl)CCCl` (configuration not stated), the T/C (dose: 25.0 mg/kg/injection, schedule: Q01DX Z (ip), vehicle: saline) is reported as 91 % of control, the T/C (dose: 50.0 mg/kg/injection, schedule: Q01DX Z (ip), vehicle: saline) is reported as 100 % of control and the T/C (dose: 100.0 mg/kg/injection, schedule: Q01DX Z (ip), vehicle: saline) is reported as 94 % of control. For the same compound, the T/C (dose: 200.0 mg/kg/injection, schedule: Q01DX Z (ip), vehicle: saline) was 103 % of control.
With `O=[N+]([O-])c1ccc(\C=C/C=C/C=C/C2(CCl)OCCO2)cc1` the T/C [2] was 91 % of control and the T/C [3] was 87 % of control.
`Cc1ccccc1OCCO` was tested, and the T/C [4] was 101 % of control, the T/C [5] was 97 % of control and the T/C [6] was 106 % of control.
With `C=CC1OC2OC(C)(C)OC2C1O` (configuration not stated) the T/C [7] was 91 % of control, the T/C [8] was 98 % of control and the T/C (dose: 18.7 mg/kg/injection, schedule: Q01DX001 (ip), vehicle: steriod suspending solution) was 108 % of control. For the same compound, the T/C [9] was 93 % of control, the T/C (dose: 37.5 mg/kg/injection, schedule: Q01DX001 (ip), vehicle: steriod suspending solution) was 103 % of control and the T/C [10] was 96 % of control. For the same compound, the T/C (dose: 75.0 mg/kg/injection, schedule: Q01DX001 (ip), vehicle: steriod suspending solution) was 109 % of control, the T/C (dose: 150.0 mg/kg/injection, schedule: Q01DX001 (ip), vehicle: steriod suspending solution) was 98 % of control and the T/C (dose: 200.0 mg/kg/injection, schedule: Q01DX001 (ip), vehicle: steriod suspending solution) was 104 % of control. For the same compound, the T/C (dose: 400.0 mg/kg/injection, schedule: Q01DX001 (ip), vehicle: steriod suspending solution) was 103 % of control.
For `CNC(=O)CCC(NS(=O)(=O)c1ccc(C)cc1)C(=O)OC` (configuration not stated), the T/C [2] was 100 % of control, the T/C [3] was 94 % of control and the T/C [11] was 97 % of control.
With `N/N=C1\c2ccccc2-c2cc([N+](=O)[O-])ccc21` the T/C [12] was 104 % of control and the T/C [13] was 95 % of control.
`O=C(Nc1cccc(C(=O)Nc2cccc(C3=NCCN3)c2)c1)Nc1cccc(C(=O)Nc2cccc(C3=NCCN3)c2)c1` was tested, and the T/C (dose: 15.0 mg/kg/injection, schedule: Q01DX Z (ip), vehicle: methylcellulose (MC)) was 96 % of control, the T/C (dose: 30.0 mg/kg/injection, schedule: Q01DX Z (ip), vehicle: methylcellulose (MC)) was 96 % of control and the T/C (dose: 60.0 mg/kg/injection, schedule: Q01DX Z (ip), vehicle: methylcellulose (MC)) was 94 % of control. The T/C (dose: 120.0 mg/kg/injection, schedule: Q01DX Z (ip), vehicle: methylcellulose (MC)) was 98 % of control, the T/C (dose: 125.0 mg/kg/injection, schedule: Q01DX Z (ip), vehicle: carboxymethylcellulose (CMC)) was 110 % of control and the T/C (dose: 250.0 mg/kg/injection, schedule: Q01DX Z (ip), vehicle: carboxymethylcellulose (CMC)) was 105 % of control. The T/C (dose: 500.0 mg/kg/injection, schedule: Q01DX Z (ip), vehicle: carboxymethylcellulose (CMC)) was 96 % of control.
For `O=S(=O)(O)CS(=O)(=O)O.[Ag]`, the T/C [7] was 101 % of control, the T/C [8] was 95 % of control and the T/C [9] was 97 % of control. For the same compound, the T/C [10] was 97 % of control.
In the case of `C=CCc1ccc(OC(=O)Nc2cc(Cl)ccc2OC)c(OC)c1`, the T/C [2] is reported as 102 % of control, the T/C (dose: 100.0 mg/kg/injection, schedule: Q01DX009 (ip), vehicle: saline with Tween-80) is reported as 90 % of control and the T/C (dose: 100.0 mg/kg/injection, schedule: Q04DX002 (ip), vehicle: saline with Tween-80) is reported as 101 % of control and 91 % of control. The T/C [3] was 90 % of control, the T/C (dose: 200.0 mg/kg/injection, schedule: Q01DX009 (ip), vehicle: saline with Tween-80) was 96 % of control and the T/C (dose: 200.0 mg/kg/injection, schedule: Q04DX002 (ip), vehicle: saline with Tween-80) was 95 % of control. For the same compound, the T/C [11] was 90 % of control, the T/C (dose: 400.0 mg/kg/injection, schedule: Q01DX009 (ip), vehicle: saline with Tween-80) was 95 % of control and the T/C (dose: 400.0 mg/kg/injection, schedule: Q04DX002 (ip), vehicle: saline with Tween-80) was 87 % of control and 90 % of control.
With `C(=N\C(/N=C/c1ccco1)c1ccco1)/c1ccco1` the T/C (dose: 100.0 mg/kg/injection, schedule: Q01DX009 (ip), vehicle: Klucel (hydroxypropylcellulose) (HPC)) was 94 % of control, the T/C [14] was 96 % of control and the T/C (dose: 200.0 mg/kg/injection, schedule: Q01DX009 (ip), vehicle: Klucel (hydroxypropylcellulose) (HPC)) was 105 % of control. The T/C [15] was 98 % of control, the T/C (dose: 400.0 mg/kg/injection, schedule: Q01DX009 (ip), vehicle: Klucel (hydroxypropylcellulose) (HPC)) was 97 % of control and the T/C [16] was 100 % of control.
In the case of `O=P(OCC(Br)CBr)(OCC(Br)CBr)OCC(Br)CBr` (configuration not stated), the T/C (dose: 50.0 mg/kg/injection, schedule: Q04DX003 (ip), vehicle: Klucel (hydroxypropylcellulose) (HPC)) is reported as 107 % of control, the T/C [14] is reported as 98 % of control and the T/C [15] is reported as 106 % of control. The T/C [16] was 106 % of control.
With `NO` the T/C (dose: 62.5 mg/kg/injection, schedule: Q01DX Z (oral), vehicle: saline) was 102 % of control, the T/C (dose: 125.0 mg/kg/injection, schedule: Q01DX Z (oral), vehicle: saline) was 104 % of control and the T/C (dose: 250.0 mg/kg/injection, schedule: Q01DX Z (oral), vehicle: saline) was 114 % of control.
With `Cc1nc2cc(N=Cc3ccc(N(CCCl)CCCl)cc3)ccc2n1C` the T/C (dose: 68.8 mg/kg/injection, schedule: Q04DX002 (ip), vehicle: Klucel (hydroxypropylcellulose) (HPC)) was 104 % of control, the T/C (dose: 137.5 mg/kg/injection, schedule: Q04DX002 (ip), vehicle: Klucel (hydroxypropylcellulose) (HPC)) was 104 % of control and the T/C (dose: 275.0 mg/kg/injection, schedule: Q04DX002 (ip), vehicle: Klucel (hydroxypropylcellulose) (HPC)) was 104 % of control.
For `Cc1ccc(S(=O)(=O)Nc2cccc3cnccc23)cc1`, the T/C [1] was 96 % of control, the T/C [12] was 105 % of control and the T/C [13] was 102 % of control. The T/C (dose: 400.0 mg/kg/injection, schedule: Q01DX001 (ip), vehicle: carboxymethylcellulose (CMC)) was 105 % of control.
For `CC(C)c1ccc(C(c2ccc(C(C)C)cc2)c2ccc(C(C)C)cc2)cc1`, the T/C [2] was 104 % of control and the T/C [3] was 91 % of control.
`S=C([S-])N(Cc1ccccc1)Cc1ccccc1.S=C([S-])N(Cc1ccccc1)Cc1ccccc1.[Zn]` was tested, and the T/C (dose: 50.0 mg/kg/injection, schedule: Q01DX009 (ip), vehicle: saline) was 104 % of control, the T/C (dose: 100.0 mg/kg/injection, schedule: Q01DX009 (ip), vehicle: saline) was 102 % of control and the T/C [4] was 94 % of control. For the same compound, the T/C (dose: 200.0 mg/kg/injection, schedule: Q01DX009 (ip), vehicle: saline) was 104 % of control, the T/C [5] was 97 % of control and the T/C [6] was 89 % of control.
In the case of `O=[N+]([O-])c1cc(C(F)(F)F)cc([N+](=O)[O-])c1Cl`, the T/C (dose: 12.5 mg/kg/injection, schedule: Q01DX001 (ip), vehicle: Klucel (hydroxypropylcellulose) (HPC)) is reported as 91 % of control and the T/C (dose: 25.0 mg/kg/injection, schedule: Q01DX001 (ip), vehicle: Klucel (hydroxypropylcellulose) (HPC)) is reported as 91 % of control.
`CC1/C(=N\O)CC2C3(C)CCC2(C(C)C(=O)O)C(=O)C13` (configuration not stated) was tested, and the T/C (dose: 100.0 mg/kg/injection, schedule: Q01DX001 (ip), vehicle: Klucel (hydroxypropylcellulose) (HPC)) was 100 % of control, the T/C (dose: 200.0 mg/kg/injection, schedule: Q01DX001 (ip), vehicle: Klucel (hydroxypropylcellulose) (HPC)) was 100 % of control and the T/C (dose: 400.0 mg/kg/injection, schedule: Q01DX001 (ip), vehicle: Klucel (hydroxypropylcellulose) (HPC)) was 92 % of control.
